In brackets after ≈: the same amount, converted by molar mass. Activity calls are given as the source filed them. The rule behind the calls is not given here.
How the values were obtained:
Klebsiella pneumoniae = test: Antimicrobial activity against multi-drug resistant Klebsiella pneumoniae assessed as reduction in bacterial growth by broth dilution method; type: functional
Escherichia coli [1] = test: Antimicrobial activity against Escherichia coli ATCC 25922 assessed as reduction in bacterial growth by broth dilution method; type: functional
Acinetobacter baumannii = test: Antimicrobial activity against multi-drug resistant Acinetobacter baumannii assessed as reduction in bacterial growth by broth dilution method; type: functional
Staphylococcus aureus [2] = test: Drug resistance, ratio of MIC for Staphylococcus aureus ATCC 25923 after 15 passages exposure to MIC for Staphylococcus aureus ATCC 25923 after first exposure; type: functional
[3] = tested on: Staphylococcus epidermidis; test: Antimicrobial activity against multi-drug resistant Staphylococcus epidermidis assessed as reduction in bacterial growth by broth dilution method; type: functional
Enterococcus faecalis = test: Antimicrobial activity against multi-drug resistant Enterococcus faecalis assessed as reduction in bacterial growth by broth dilution method; type: functional
Staphylococcus aureus [4] = test: Antimicrobial activity against multi-drug resistant Staphylococcus aureus assessed as reduction in bacterial growth by broth dilution method; type: functional
Escherichia coli [5] = test: Antimicrobial activity against multi-drug resistant Escherichia coli assessed as reduction in bacterial growth by broth dilution method; type: functional
Staphylococcus aureus [6] = test: Antimicrobial activity against Staphylococcus aureus ATCC 25923 assessed as reduction in bacterial growth by broth dilution method; type: functional
Escherichia coli [7] = test: Drug resistance, ratio of MIC for Escherichia coli ATCC 25922 after 15 passages exposure to MIC for Escherichia coli ATCC 25922 after first exposure; type: functional
Escherichia coli [8] = test: Antibacterial activity against Escherichia coli ATCC 25922 infected in male Kunming mouse model assessed as reduction in bacterial load measured after 11 days; type: functional, organism-based; conditions: time 11.0 day
Escherichia coli [9] = test: Antibacterial activity against multidrug resistant Escherichia coli infected in male Kunming mouse model assessed as reduction in IL-6 expression by immunochemical analysis; type: functional, organism-based
Escherichia coli [10] = test: Antibacterial activity against multidrug resistant Escherichia coli infected in male Kunming mouse model assessed as reduction in tissue hemorrhage by H and E staining based analysis; type: functional, organism-based
Escherichia coli [11] = test: Antibacterial activity against multidrug resistant Escherichia coli infected in male Kunming mouse model assessed as scabs thickening measured after 7 days by caliper method; type: functional, organism-based; conditions: time 7.0 day
Escherichia coli [12] = test: Antibacterial activity against multidrug resistant Escherichia coli infected in male Kunming mouse model assessed as recovery of mouse weight measured after 11 days; type: functional, organism-based; conditions: time 11.0 day
Escherichia coli [13] = test: Antibacterial activity against multidrug resistant Escherichia coli infected in male Kunming mouse model assessed as wound healing measured after 11 days by caliper method; type: functional, organism-based; conditions: time 11.0 day
Escherichia coli [14] = test: Antibacterial activity against multidrug resistant Escherichia coli infected in male Kunming mouse model assessed as reduction in wound size measured after 3 to 5 days by caliper method; type: functional, organism-based; conditions: time 3-5 day
Escherichia coli [15] = test: Antibacterial activity against multidrug resistant Escherichia coli infected in male Kunming mouse model assessed as inflammatory cell infiltration by H and E staining based analysis; type: functional, organism-based
Escherichia coli [16] = test: Antibacterial activity against multidrug resistant Escherichia coli infected in male Kunming mouse model assessed as reduction in epidermal thickening by H and E staining based analysis; type: functional, organism-based
[17] = Hemolytic activity in human Red blood cell assessed as hemolysis incubated for 1 hrs by microplate reader based analysis; type: toxicity; conditions: erythrocyte
L02 = test: Cytotoxicity against human LO2 cells at 256 uM measured after 24 hrs by CCK-8 method relative to control; type: toxicity, cell-based; conditions: l02, 24 h
HEK-293T = test: Cytotoxicity against HEK293T cells at 256 uM measured after 24 hrs by CCK-8 method relative to control; type: toxicity, cell-based; conditions: human

With `CC1(C)S[C@@H]2[C@H](NC(=O)[C@H](N)c3ccc(O)cc3)C(=O)N2[C@H]1C(=O)O` [AMOXICILLIN] the MIC (Klebsiella pneumoniae) was > 256 µM, the MIC (Escherichia coli [1]) was 4 µM (≈ 1.46 µg/mL) and the MIC (Acinetobacter baumannii) was 128 µM (≈ 46.8 µg/mL). The “fold change (FC)” value (Staphylococcus aureus [2]) was 64, the MIC [3] was 128 µM (≈ 46.8 µg/mL) and the MIC (Enterococcus faecalis) was 64 µM (≈ 23.4 µg/mL). The MIC (Staphylococcus aureus [4]) was 64 µM (≈ 23.4 µg/mL), the MIC (Escherichia coli [5]) was > 256 µM and the MIC (Staphylococcus aureus [6]) was 0.25 µM (≈ 0.0914 µg/mL). The “fold change (FC)” value (Escherichia coli [7]) was 8.

In the case of `C[C@H]1COc2c(N3CCN(C)CC3)c(F)cc3c(=O)c(C(=O)O)cn1c23` [LEVOFLOXACIN ANHYDROUS], the MIC (Klebsiella pneumoniae) is reported as 64 µM (≈ 23.1 µg/mL), the Activity (Escherichia coli [8]) is reported as “Active” and the MIC (Escherichia coli [1]) is reported as 2 µM (≈ 0.723 µg/mL). For the same compound, the MIC (Acinetobacter baumannii) was > 256 µM, the MIC [3] was 8 µM (≈ 2.89 µg/mL) and the Activity (Escherichia coli [9]) was “inactive”. For the same compound, the Activity (Escherichia coli [10]) was “inactive”, the Activity (Escherichia coli [11]) was “Active” and the Activity (Escherichia coli [12]) was “Active”. For the same compound, the Activity (Escherichia coli [13]) was “inactive”, the MIC (Enterococcus faecalis) was 32 µM (≈ 11.6 µg/mL) and the MIC (Staphylococcus aureus [4]) was 0.25 µM (≈ 0.0903 µg/mL). The MIC (Escherichia coli [5]) was 64 µM (≈ 23.1 µg/mL), the Activity (Escherichia coli [14]) was “Active” and the MIC (Staphylococcus aureus [6]) was 0.25 µM (≈ 0.0903 µg/mL). For the same compound, the Activity (Escherichia coli [15]) was “inactive” and the Activity (Escherichia coli [16]) was “inactive”.

Compound `CO[C@H]1/C=C/O[C@@]2(C)Oc3c(C)c(O)c4c(O)c(c(/C=N/N5CCN(C)CC5)c(O)c4c3C2=O)NC(=O)/C(C)=C\C=C\[C@H](C)[C@H](O)[C@@H](C)[C@@H](O)[C@@H](C)[C@H](OC(C)=O)[C@@H]1C` [RIFAMPIN] has an MIC (Klebsiella pneumoniae) of 16 µM (≈ 13.2 µg/mL), an MIC (Escherichia coli [1]) of 8 µM (≈ 6.58 µg/mL) and an MIC (Acinetobacter baumannii) of 16 µM (≈ 13.2 µg/mL). For the same compound, the “fold change (FC)” value (Staphylococcus aureus [2]) was 64, the MIC [3] was 2 µM (≈ 1.65 µg/mL) and the MIC (Enterococcus faecalis) was 4 µM (≈ 3.29 µg/mL). The MIC (Staphylococcus aureus [4]) was 0.5 µM (≈ 0.411 µg/mL), the MIC (Escherichia coli [5]) was 64 µM (≈ 52.7 µg/mL) and the MIC (Staphylococcus aureus [6]) was 0.5 µM (≈ 0.411 µg/mL). The “fold change (FC)” value (Escherichia coli [7]) was 8.

In the case of `CN[C@H](CC(C)C)C(=O)N[C@H]1C(=O)N[C@@H](CC(N)=O)C(=O)N[C@H]2C(=O)N[C@H]3C(=O)N[C@H](C(=O)N[C@H](C(=O)O)c4cc(O)cc(O)c4-c4cc3ccc4O)[C@H](O)c3ccc(c(Cl)c3)Oc3cc2cc(c3O[C@@H]2O[C@H](CO)[C@@H](O)[C@H](O)[C@H]2O[C@H]2C[C@](C)(N)[C@H](O)[C@H](C)O2)Oc2ccc(cc2Cl)[C@H]1O` [VANCOMYCIN], the MIC (Klebsiella pneumoniae) is reported as > 256 µM, the MIC (Escherichia coli [1]) is reported as 256 µM (≈ 371 µg/mL) and the MIC (Acinetobacter baumannii) is reported as > 256 µM. The HC10 [17] was > 256 µM, the MIC [3] was 2 µM (≈ 2.9 µg/mL) and the Activity (L02) was 75%. For the same compound, the Activity (HEK-293T) was 75%, the MIC (Enterococcus faecalis) was > 256 µM and the MIC (Staphylococcus aureus [4]) was 1 µM (≈ 1.45 µg/mL). For the same compound, the MIC (Escherichia coli [5]) was > 256 µM and the MIC (Staphylococcus aureus [6]) was 1 µM (≈ 1.45 µg/mL).

Reference: ChEMBL document CHEMBL6134890, “Terminally Symmetric β-Turn Peptides for Multidrug-Resistant Bacterial Infections” (J Med Chem, 2025)
